This note sets out measurements from patent US9572812B2, “Compositions and methods involving polymer, solvent, and high viscosity liquid carrier material” (DURECT CORPORATION, priority 2013, dated 2017).

Data set [1] is described as follows: Risperidone solubility in vehicle / solvent. The format is physicochemical. The note with it: NMP versus PC.
Data set [2] is described as follows: Density and viscosity of placebo vehicle and formulation. The format is physicochemical. From the text:
Formulation No. R66 consisted of SAIB/NMP/PLGA/RSP in the following weight proportion: 45.5/27.3/18.2/9.0. Formulation No. R131 consisted of SAIB/PC/PLGA/RSP in the following weight proportions 40.0/33.7/17.3/9.0. It should be noted that Formulation Nos. […] and […] were formulated to yield approximately the same viscosity (see below Table). However, to achieve similar viscosities, more PC must be added to the vehicle, with a corresponding decrease in SAIB (and a minor decrease in PLGA). [table] The difference in the above-noted settling versus the difference in vehicle density is notable. As shown in the first Table of this Example, the viscosity of the placebo vehicle for Formulation No. R66 at 5° C. is slightly higher than the viscosity of the placebo vehicle for Formulation No. R131 at 5° C. […] R131

For `Cc1nc2n(c(=O)c1CCN1CCC(c3noc4cc(F)ccc34)CC1)CCCC2` [risperidone], the “risperidone solubility in solvents” value in data set [1] is listed as “higher solubility in NMP than in PC”. The molecule also had a density of risperidone in data set [2] of 1.30 g/mL.
